Data set [1] is described as follows: ABTS radical cation decolorization assay. Conditions: tested at 100 µM. On the procedure: Approximately 10 µL of the tested compounds in DMSO (100 µM final concentration) were mixed with 200 µL of ABTS∙^+ (100 mM) and 790 µL absolute ethanol. The absorbance value was recorded 1 min after mixing at 734 nm and compared to Trolox.
The test system of data set [2] is SH-SY5Y human neuroblastoma cells. Briefly: Anti-necrotic effect: LDH release after OGD (4 h) and 24 h OGR (IR). Particulars: Homo sapiens, OGD 4 h + 24 h OGR (IR); for IC50: compounds 0.1 μM to 1 mM, read-out: LDH Release Inhibition IC50 ±SEM; for Emax: read-out: Maximal Inhibition Mean±SEM (LDH release). The data set is classed as cell-based. As to the method:
(§1) To induce experimental ischemia, and the sub-consequent cellular damage, the neuroblastoma cultures underwent OGD for 3–4 h, maintained in a glucose-free Dulbecco’s medium inside an anaerobic chamber in the presence of a gas mixture of 95% N2/5% CO2 and humidified at 37 °C at a constant pressure of 0.15 bar. After the OGD period (4 h), medium was substituted by oxygenated 10% FCS-containing medium, and cells were incubated in conditions of normoxia for 24 h to recovery (R24h). The compounds used in the neuroprotection studies: nitrones 9a–i, α-phenyl-N-tert-butyl nitrone (PBN) and N-acetyl-L-cysteine (NAC) (0.01 μM−1000 µM), were added at the beginning of R24h as described. Concurrently, controls in the absence of the OGD procedure were performed by maintaining these cells with Dulbecco’s medium including glucose for 3–4 h in an incubator in conditions of normoxia during the OGD period; thereafter, the medium was changed, and the cells (in the presence or absence of the different study compounds) were returned to the incubator for 24 h of recovery, as described. In addition, experiments including the same amounts of vehicle (final concentration < 1% dimethyl sulfoxide) were performed, serving as controls. The effects of nitrones 9a–g were analyzed three-five times independently using different culture batches, and each experiment was carried out in triplicate.
Anti-necrotic cell activity was evaluated by culturing SHSY5Y cells in 48-well dishes, in a density of 2 × 10^5 cells/well and treating them as controls or under the OGD-R24h procedure, adding the testing compounds at 0.01–1000 µM (see point 4.2.2.). Media of every well were collected in Eppendorf tubes properly labelled and stored at −20 °C until measurement (samples would be needed to measure extracellular NADH). Afterwards, each well was recharged with a 0.1 M Phosphate Buffer with 0.5% Triton X-100, pH 7.5, in order to scratch the cells from the bottom of the well. After a 13.000 rpm centrifugation, the soluble fractions are collected and labelled (samples would be essential to measure intracellular NADH). Finally, LDH activity was quantified as the degree of absorbance declined at 340, indicating the oxidation of NADH to NAD+ as described. Results are expressed as the LDH activity of the extracellular medium referred to the total LDH activity after cell lysis.
In general terms: Release of lactate dehydrogenase indicates damage to the cell membrane.

Data set [3] can be described thus: Hydroxyl radical scavenging (competition with DMSO). Conditions: tested at 100 µM. On the procedure: The competition of the tested nitrones (100 µM) with DMSO (33 mM) in the phosphate buffer (50 mM), pH 7.4, was used. The hydroxyl radicals were generated by the Fe^3+/ascorbic acid system (EDTA 0.1 mM, Fe^3+ 167 µM, ascorbic acid 10 mM), and the samples were incubated at 37 °C/30 min. A 17% w/v solution of CCl3CO2H was used to stop the radical propagation. The percentage scavenging activity was compared to Trolox used as a reference.

In data set [4] the target is T1, Soybean Lipoxygenase (SLOX) (Glycine max, UniProt P08170).
T1 sequence (P08170 1-839): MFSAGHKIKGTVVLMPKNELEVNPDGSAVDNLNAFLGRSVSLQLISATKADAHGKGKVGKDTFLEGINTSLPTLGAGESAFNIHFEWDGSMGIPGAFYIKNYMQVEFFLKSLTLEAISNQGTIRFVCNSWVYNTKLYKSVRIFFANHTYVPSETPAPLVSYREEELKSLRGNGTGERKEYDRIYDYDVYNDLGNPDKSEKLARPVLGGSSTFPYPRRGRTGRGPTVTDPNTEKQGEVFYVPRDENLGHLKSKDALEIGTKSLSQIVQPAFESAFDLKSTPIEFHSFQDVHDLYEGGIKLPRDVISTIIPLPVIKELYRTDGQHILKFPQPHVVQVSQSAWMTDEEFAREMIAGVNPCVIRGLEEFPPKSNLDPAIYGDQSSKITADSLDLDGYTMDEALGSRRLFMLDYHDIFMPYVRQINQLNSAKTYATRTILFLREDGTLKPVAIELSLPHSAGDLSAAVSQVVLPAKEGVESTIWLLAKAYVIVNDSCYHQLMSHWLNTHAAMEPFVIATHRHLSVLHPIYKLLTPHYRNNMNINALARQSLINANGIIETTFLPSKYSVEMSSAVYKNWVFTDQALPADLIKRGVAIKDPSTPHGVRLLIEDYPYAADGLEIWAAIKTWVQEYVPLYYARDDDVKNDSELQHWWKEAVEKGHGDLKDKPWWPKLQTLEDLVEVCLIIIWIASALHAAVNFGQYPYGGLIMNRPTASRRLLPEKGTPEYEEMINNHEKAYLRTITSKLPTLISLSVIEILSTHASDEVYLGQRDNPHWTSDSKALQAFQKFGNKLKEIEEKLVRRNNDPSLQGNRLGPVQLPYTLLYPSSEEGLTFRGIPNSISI
Briefly: In vitro inhibition of soybean lipoxygenase (UV absorbance-based enzyme assay). The data set is classed as biochemical. Particulars: soybean LOX, sodium linoleate substrate, pH 9. On the procedure:
The experimental conditions followed our previously reported protocol. Sodium linoleate was used as a substrate (0.1 mM) with 0.2 mL of the saline solution of SLOX (1/9 × 10^−4 w/v) in the Tris buffer pH 9.

The nature of data set [5]: Reducing ability: interaction with DPPH. Particulars: tested at 100 µM. (In general: DPPH is a stable violet radical that fades when it is reduced.)
Data set [6] is described as follows: Inhibition of lipid peroxidation (ILPO), AAPH protocol with sodium linoleate. Particulars: tested at 100 µM. On the procedure:
The reactants consisting of 10 µL (16 mM) sodium linoleate, 10 µL of the tested nitrones in DMSO (final concentration 100 µM), 50 µL of AAPH ([…]) as a free radical initiator, 930 µL phosphate buffer pH 7.4 (0.05 M) at 37 °C under air, were mixed and the reaction’s result (as absorbance value) was recorded at 234 nm in comparison to PBN as a reference.

Data set [7] concerns human neuroblastoma SH-SY5Y cells. Put plainly: Superoxide radical production (DHE fluorescence) after OGD and 3 h OGR (IR). The class given is cell-based. Conditions: Homo sapiens, OGD + 3 h OGR (IR); for EC50: compounds 0.1 to 1000 μM, read-out: Antioxidant Activity EC50 ± SEM (superoxide production); for Emax: read-out: Maximal Activity mean±SEM (antioxidant). On the procedure:
A density of 2–2.5 × 10^5 SHSY5Y cells/well was used to seed in 48-well plates to quantify superioxide anion formation. Firstly, cultured cells were exposed to OGD treatment for 3–4 h or maintained in normoxic conditions (controls). Thereafter, medium was replaced with oxygenated Dulbecco’s: Ham’s F12 medium with glucose, 1% Antibiotic-Antimycotic, 1% Gentamicin and 10% FCS. Cells were incubated in the absence (controls) or presence of indicated concentrations of the compounds of study, at 37 °C for 3 h. […] For every condition, the linear regression of fluorescence data (expressed in arbitrary fluorescence units, AFU) was calculated, and the slopes (a) of the best fitting lines (y = ax) were considered as an index of superoxide production, as described previously.

Data set [8] concerns SH-SY5Y human neuroblastoma cells. Put plainly: Neuroprotection: cell viability (XTT metabolic activity) after OGD (4 h) followed by OGR (24 h) (IR). The class given is cell-based. Particulars: Homo sapiens, OGD 4 h + OGR 24 h (IR); for Emax: 24 h, read-out: Maximal Activity mean±SEM (neuroprotection); for EC50: compounds 0.01 μM to 1 mM, read-out: Neuroprotection EC50 ± SEM. On the procedure:
Cultures of human neuroblastoma cells from line SH-SY5Y were performed in flasks containing Dulbecco’s: Ham’s F12, 1:1 [v/v] composed of 0.5 mM sodium pyruvate, 2.5 mM GlutaMAX™; GIBCO, Life Technologies, Madrid (Spain), 3.15 mg/mL glucose, 1% Antibiotic-Antimycotic (100 ui/mL penicillin, […] streptomycin, and 0.25 mg amphotericin B), 1% Gentamicin 15 mg/mL (Sigma-Aldrich, Madrid, Spain) and 10% Fetal Calf Serum (FCS) (Gibco; Life Technologies, Madrid, Spain) as as described. For each experiment, neuroblastoma cells were digested partially with 0.25% trypsin-EDTA and seeded in plates of 96 or 48 wells with a density of 0.5–1 or 2–2.5 × 10^5 cells/well, respectively, depending on the assay. At 80% confluence of the seeded cells, medium was renewed adding 0.1–1000 µM of the compounds tested.
as §1
(§2) Cell viability measurements were carried out in human neuroblastoma cells SHSY5Y using 96-well culture plates, containing about 0.5–1 × 10^5 cells/well, after the OGD-R24h or control treatment including 0.01–1000 µM of the different testing compounds (nitrones 9a–g, PBN, and NAC), utilizing the Cell Proliferation Kit II (XTT), Sigma Aldrich, Madrid, Spain, which determines the culture’s metabolic capacity, as described in [21, 22]. XTT solution (0.3 mg/mL final concentration) was added to the seeded cells, incubated for 2 h at 37 °C with 5% CO2 and 95% air (v/v), and a spectrophotometer reader (Biotek Power-Wave XS microplate-reader (BioTek Instruments, Madrid, Spain) was used to register the absorbance at 450 nm (reference 650 nm) of the soluble formazan product generated. 100% viability was set by control normoxic cells treated with medium only, and control cells were added 0.001–1% DMSO in every assay.
A general note: Tetrazolium dyes change colour on reduction, which living cells bring about.

Data set [9] has as its system human neuroblastoma SH-SY5Y cells. Put plainly: Basal neurotoxicity: cell viability under basal conditions. The data set is classed as cell-based. On the procedure:
as §2

This is an account of results in publication PMC8955307, “Nucleobase-Derived Nitrones: Synthesis and Antioxidant and Neuroprotective Activities in an In Vitro Model of Ischemia–Reperfusion” (International Journal of Molecular Sciences, 2022).

As usually defined, the IC50 is the concentration that gives 50% inhibition. As a reminder, the EC50 is the concentration needed to bring the measured effect to its halfway point. Turning to `C/[N+]([O-])=C/Cn1ccc(=O)[nH]c1=O` [9a], in data set [1], the “ABTS+ (%)” value stood at 19%. Further, in [2], the concentration for half-maximal inhibition (IC50) came out at 2.57 ± 0.53 µM and the Emax was 100 ± 4.75%. In addition, the “OH (%) scavenging” value in data set [3] was “no activity and No”. In [4], this compound returned an IC50 of 62.5 µM. In addition, in data set [5], the “DPPH (%)” value was determined as 20%. Further, the “ILPO (%)” value in [6] worked out at 62%. For the same compound, in data set [7], the half-maximal effective concentration (EC50) is 0.37 ± 0.04 µM and the Emax came to 111 ± 1.46%.

Broadly, the melting point is the temperature, or range, at which the solid turns liquid. On to `C/[N+]([O-])=C/Cn1cc(F)c(=O)[nH]c1=O` [9c], for which the melting point was 195 °C (dec.). The “ABTS+ (%)” value in [1] is listed as 5%. For the same compound, in data set [2], the IC50 was ~1 µM and the Emax came out at 148 ± 8.8%. Besides, the “OH (%) scavenging” value in [3] was 99%. Besides, the IC50 in data set [4] is 28 µM. For the same compound, in data set [5], the “DPPH (%)” value is 18%. In addition, the “ILPO (%)” value in [6] was 59%. In addition, in data set [7], the half-maximal effective concentration (EC50) turned out to be 3.69 ± 0.7 µM and the Emax was 96.1 ± 3.03%.

For `Cn1c(=O)c2ncn(C/C=[N+](/C)[O-])c2n(C)c1=O` [9g], the melting point was 192 °C (dec.). In addition, the “ABTS+ (%)” value in data set [1] stood at 8%. Moreover, the 50% inhibitory concentration (IC50) in data set [2] was found to be 2.66 ± 1.11 µM. In addition, in [3], the “OH (%) scavenging” value is given as 49%. In addition, in data set [4], it took 33 µM to reach half-maximal inhibition (IC50). Also, the Emax in [8] was 105 ± 3.19%. Moreover, the “DPPH (%)” value in data set [5] was 15%. In addition, in data set [7], the concentration for a half-maximal effect (EC50) is 0.28 ± 0.03 µM and the Emax came to 83 ± 1.37%.

For the compound `C/[N+]([O-])=C/Cn1ccc(=O)n(C/C=[N+](/C)[O-])c1=O` [9h], the “ABTS+ (%)” value in data set [1] was determined as 50%. Further, in data set [2], the concentration for half-maximal inhibition (IC50) was 17.6 ± 3.33 µM. For the same compound, the values for the Emax in data set [2], in data set [8] and in [7] were 126 ± 4.27%, 115 ± 6.92% and 127 ± 3.12%, respectively. Also, the “OH (%) scavenging” value in data set [3] was 25%. Moreover, the concentration giving a half-maximal response (EC50) in data set [8] was 6.15 ± 0.33 µM; in data set [7], 0.32 ± 0.06 µM. The “DPPH (%)” value in data set [5] is 82%. For the same compound, the “ILPO (%)” value in [6] was “inactive and No”.

For `CC(=O)N[C@@H](CS)C(=O)O` [NAC, N-acetyl-L-cysteine, reference compound], in [2], the concentration for half-maximal inhibition (IC50) came to 4.64 ± 1.05 µM and the Emax amounted to 99.1 ± 6.59%. Moreover, in data set [8], the Emax was 131 ± 4.85% and the EC50 amounted to 4.18 ± 0.52 µM. Also, in data set [7], the half-maximal effective concentration (EC50) is 0.97 ± 0.16 µM and the Emax came to 126 ± 5.19%. Further, the “Neurotoxic effects at basal level (cell viability)” value in [9] is “did not show any neurotoxic effects”.

For the compound `CC(Cc1ccc(O)c(O)c1)C(C)Cc1ccc(O)c(O)c1` (stereo not shown) [NDGA, Nordihydroguaiaretic acid, reference compound], the “DPPH (%)” value in data set [5] came to 93%.

Take `Cc1c(C)c2c(c(C)c1O)CCC(C)(C(=O)O)O2` (stereo not shown) [Trolox, reference compound]: the “ABTS+ (%)” value in data set [1] is 91%. Moreover, the “OH (%) scavenging” value in data set [3] is on record as 73%. Further, the “ILPO (%)” value in data set [6] was 93%.
